Measurements: patent publication US7365231B2, “Compound with antitumor activity and preparation method therefor” (National Taiwan University of Science & Technology, priority 2005, dated 2008)

How the values were obtained:
[1] = tested on: HT-29 cells; experiment: Cell cycle analysis by flow cytometry; format: cell-based, human
Procedure: […] […] HT-29 cells were mainly in G0/G1 phase (84.1-86.0%), and only a few percent of cells in S phase (7.4-8.0%) after exposure to 4 μM DPA for 48-72 h. […] The G0/G1 arrest was not induced in the HCT-15 cells treated with 1-8 μM DPA for 24-72 h. […] DPA exerted the dose specific effect for the induced G0/G1 arrest on Colo 205 cells. […] In addition, we noted that DPA-mediated accumulation of Colo205 and HT 29 cells in G1 phase (>80%) was similar to that of DPD (Anti-Cancer Drug 2004; 15:277-80). It is likely that the induced G1-arrest without concomitant apoptosis on Colo 205 and HT 29 colon cancer cells is one unique property of structure I.

[2] = tested on: human colon cancer Colo 205 xenografts; experiment: In vivo antiproliferation, colon cancer xenografts, DPA once a week; set-up: species or system ICR nude mice; details: for tumor size compared to vehicle control: end point
Procedure: (§1) We further examined whether DPA is also effective in vivo after tumor formation. For compare the in vivo antitumor activity with DPD (DPA analogue), we followed the method of our previous study (Br. J Cancer 2003; 89: 1995-2003), and the similar doses were used. Cancer cells were transplanted into ICR nude mice, and when the tumors were palpable (2-4 mm), the mice were treated either with vehicle control or DPA (20-80 mg kg^−1, i.p., once a week). […] Its tumor size (48.6 mm^2) was about 3-fold larger than the average tumor size (16.7 mm^2) of the other DPA 80 mg kg^−1-treated mice at 7 days after the initial treatment. […] (ii) DPA presented the dose-specific effect for antitumor activity on human colon cancer xenografts. The dose-specific phenomenon was also found in vitro study of DPA-induced cell cycle arrest on Colo 205 cells as shown in Table 3.

[3] = Toxicity and body weight in nude mice, DPA once a week; format: in vivo; details: DPA 20-80 mg kg^−1, i.p.
Procedure: as §1

[4] = Toxicity, body weight and histology, DPA twice a week; format: in vivo, ICR nude mice
[5] = tested on: Colo 205 cells; experiment: Cell cycle analysis by flow cytometry; format: cell-based, human

With Nc1ccc(Oc2ccc(C3(c4ccc(Oc5ccc(N)c(O)c5)cc4)C4CC5CC(C4)CC3C5)cc2)cc1O [DPA, 2,2-bis(4-(4-amino-3-hydroxyphenoxy)phenyl)adamantane] the “G0/G1 cell-cycle arrest and apoptosis” value ([1]; HT 29) was “G0/G1 cell-cycle arrest without concomitant apoptosis”, the “accumulation of cells in G1 phase” value ([1]; HT 29) was over 80% and the “cells in G0/G1 phase” value ([1]; HT-29, 4 μM DPA for 48-72 h) was 84.1-86.0%. The “cells in S phase” value ([1]; HT-29, 4 μM DPA for 48-72 h) was 7.4-8.0%, the “G0/G1(%)” value ([1]; HT-29, DPA 1 μM, 24 h) was 56.6% and the “G2/M(%)” value ([1]; HT-29, DPA 1 μM, 24 h) was 10.3%. The “S(%)” value ([1]; HT-29, DPA 1 μM, 24 h) was 33.1%, the “G0/G1(%)” value ([1]; HT-29, DPA 1 μM, 48 h) was 61.6% and the “G2/M(%)” value ([1]; HT-29, DPA 1 μM, 48 h) was 9.4%. For the same compound, the “S(%)” value ([1]; HT-29, DPA 1 μM, 48 h) was 29.0%, the “G0/G1(%)” value ([1]; HT-29, DPA 1 μM, 72 h) was 72.6% and the “G2/M(%)” value ([1]; HT-29, DPA 1 μM, 72 h) was 7.3%. For the same compound, the “S(%)” value ([1]; HT-29, DPA 1 μM, 72 h) was 20.1%, the “G0/G1(%)” value ([1]; HT-29, DPA 2 μM, 24 h) was 67.0% and the “G2/M(%)” value ([1]; HT-29, DPA 2 μM, 24 h) was 10.0%. The “S(%)” value ([1]; HT-29, DPA 2 μM, 24 h) was 23.1%, the “G0/G1(%)” value ([1]; HT-29, DPA 2 μM, 48 h) was 77.5% and the “G2/M(%)” value ([1]; HT-29, DPA 2 μM, 48 h) was 4.7%. The “S(%)” value ([1]; HT-29, DPA 2 μM, 48 h) was 17.8%, the “G0/G1(%)” value ([1]; HT-29, DPA 2 μM, 72 h) was 67.3% and the “G2/M(%)” value ([1]; HT-29, DPA 2 μM, 72 h) was 2.9%. For the same compound, the “S(%)” value ([1]; HT-29, DPA 2 μM, 72 h) was 29.9%, the “G0/G1(%)” value ([1]; HT-29, DPA 4 μM, 24 h) was 72.1% and the “G2/M(%)” value ([1]; HT-29, DPA 4 μM, 24 h) was 10.9%. For the same compound, the “S(%)” value ([1]; HT-29, DPA 4 μM, 24 h) was 17.1%, the “G0/G1(%)” value ([1]; HT-29, DPA 4 μM, 48 h) was 84.1% and the “G2/M(%)” value ([1]; HT-29, DPA 4 μM, 48 h) was 8.5%. The “S(%)” value ([1]; HT-29, DPA 4 μM, 48 h) was 7.4%, the “G0/G1(%)” value ([1]; HT-29, DPA 4 μM, 72 h) was 86.0% and the “G2/M(%)” value ([1]; HT-29, DPA 4 μM, 72 h) was 6.1%. The “S(%)” value ([1]; HT-29, DPA 4 μM, 72 h) was 8.0%, the “G0/G1(%)” value ([1]; HT-29, DPA 8 μM, 24 h) was 77.0% and the “G2/M(%)” value ([1]; HT-29, DPA 8 μM, 24 h) was 9.6%. The “S(%)” value ([1]; HT-29, DPA 8 μM, 24 h) was 13.3%, the “G0/G1(%)” value ([1]; HT-29, DPA 8 μM, 48 h) was 79.5% and the “G2/M(%)” value ([1]; HT-29, DPA 8 μM, 48 h) was 10.0%. For the same compound, the “S(%)” value ([1]; HT-29, DPA 8 μM, 48 h) was 10.6%, the “G0/G1(%)” value ([1]; HT-29, DPA 8 μM, 72 h) was 86.3% and the “G2/M(%)” value ([1]; HT-29, DPA 8 μM, 72 h) was 6.2%. The “S(%)” value ([1]; HT-29, DPA 8 μM, 72 h) was 7.5%, the “concentration of maximum in vivo antitumor effect” value ([2]; Colo 205 xenografts, i.p.) was “about 40 mg kg^−1 week^−1” and the “tumor size compared to vehicle control” value ([2]; DPA 20 mg kg^−1 i.p. once a week) was “not significantly decreased”. For the same compound, the “tumor size compared to control groups” value ([2]; DPA 40 mg kg^−1 i.p. once a week) was “significantly (P<0.05) decreased”, the average tumor size ([2]; DPA 40 mg kg^−1 i.p. once a week, end of study (control 81.5)) was 29.6 mm^2 and the “tumor size of one mouse with abnormally large tumor” value ([2]; DPA 80 mg kg^−1, 7 days after initial treatment) was 48.6 mm^2. The “average tumor size of the other mice” value ([2]; DPA 80 mg kg^−1, 7 days after initial treatment, without the outlier mouse) was 16.7 mm^2, the “tumor size compared to vehicle control” value ([2]; DPA 80 mg kg^−1 i.p. once a week) was “not significantly decreased” and the body weight [3] was “No significant reduction in body weight”. The acute toxicity ([4]; DPA 20~80 mg/kg, i.p., twice a week) was “no obviously acute toxicity”, the body weight ([4]; DPA-treated mice, twice a week) was “no significant reduction in body weight” and the “tissue damage in liver, lung and kidney” value ([4]; tissue slices stained with haematoxylin and eosin) was “no tissue damage was observed”. For the same compound, the “G0/G1 cell-cycle arrest and apoptosis” value ([5]; Colo205) was “G0/G1 cell-cycle arrest without concomitant apoptosis”, the “cells in G1 phase” value ([5]; Colo 205, 2 μM DPA for 48-72 h) was 84.1-87.1% and the “cells in G2/M phase” value ([5]; Colo 205, 2 μM DPA for 48-72 h) was 5.1-5.6%. For the same compound, the “cells in S phase” value ([5]; Colo 205, 2 μM DPA for 48-72 h) was 7.8-10.3%, the “G0/G1(%)” value ([5]; Colo 205, DPA 1 μM, 24 h) was 58.9% and the “G2/M(%)” value ([5]; Colo 205, DPA 1 μM, 24 h) was 12.0%. The “S(%)” value ([5]; Colo 205, DPA 1 μM, 24 h) was 29.0%, the “G0/G1(%)” value ([5]; Colo 205, DPA 1 μM, 48 h) was 53.3% and the “G2/M(%)” value ([5]; Colo 205, DPA 1 μM, 48 h) was 7.6%. The “S(%)” value ([5]; Colo 205, DPA 1 μM, 48 h) was 39.0%, the “G0/G1(%)” value ([5]; Colo 205, DPA 1 μM, 72 h) was 60.3% and the “G0/G1(%)” value ([5]; Colo 205, DPA 2 μM, 24 h) was 67.1%. The “G2/M(%)” value ([5]; Colo 205, DPA 2 μM, 24 h) was 48.3%, the “S(%)” value ([5]; Colo 205, DPA 2 μM, 24 h) was 24.1% and the “G0/G1(%)” value ([5]; Colo 205, DPA 2 μM, 48 h) was 84.1%. For the same compound, the “G2/M(%)” value ([5]; Colo 205, DPA 2 μM, 48 h) was 5.6%, the “S(%)” value ([5]; Colo 205, DPA 2 μM, 48 h) was 10.3% and the “G0/G1(%)” value ([5]; Colo 205, DPA 2 μM, 72 h) was 87.1%. The “G2/M(%)” value ([5]; Colo 205, DPA 2 μM, 72 h) was 5.1%, the “S(%)” value ([5]; Colo 205, DPA 2 μM, 72 h) was 7.8% and the “G0/G1(%)” value ([5]; Colo 205, DPA 4 μM, 24 h) was 67.5%. The “G2/M(%)” value ([5]; Colo 205, DPA 4 μM, 24 h) was 8.2%, the “S(%)” value ([5]; Colo 205, DPA 4 μM, 24 h) was 24.3% and the “G0/G1(%)” value ([5]; Colo 205, DPA 4 μM, 48 h) was 71.6%. For the same compound, the “G2/M(%)” value ([5]; Colo 205, DPA 4 μM, 48 h) was 10.4%, the “S(%)” value ([5]; Colo 205, DPA 4 μM, 48 h) was 18.1% and the “G0/G1(%)” value ([5]; Colo 205, DPA 4 μM, 72 h) was 76.3%. The “G2/M(%)” value ([5]; Colo 205, DPA 4 μM, 72 h) was 10.3%, the “S(%)” value ([5]; Colo 205, DPA 4 μM, 72 h) was 13.4% and the “G0/G1(%)” value ([5]; Colo 205, DPA 8 μM, 24 h) was 70.5%. For the same compound, the “G2/M(%)” value ([5]; Colo 205, DPA 8 μM, 24 h) was 5.2%, the “S(%)” value ([5]; Colo 205, DPA 8 μM, 24 h) was 24.3% and the “G0/G1(%)” value ([5]; Colo 205, DPA 8 μM, 48 h) was 70.6%. The “G2/M(%)” value ([5]; Colo 205, DPA 8 μM, 48 h) was 5.2%, the “S(%)” value ([5]; Colo 205, DPA 8 μM, 48 h) was 24.1% and the “G0/G1(%)” value ([5]; Colo 205, DPA 8 μM, 72 h) was 70.7%. The “G2/M(%)” value ([5]; Colo 205, DPA 8 μM, 72 h) was 3.4% and the “S(%)” value ([5]; Colo 205, DPA 8 μM, 72 h) was 25.8%.
